Read-outs that look alike come from different tables or passages of the source.
Legend:
Experiment in all cases: Resazurin-based cell viability assay, monotherapy drug screen
[1] = system: CAL-148 cells; design: species or system human; AUC: unit not given beside the values; conditions: CAL-148; for AUC: area under the dose response curve, 24 h; for GRmax: drug efficacy at highest tested dose (<0 cytotoxic, 0 cytostatic, >0 partial growth inhibition)
Procedure: Eighteen pharmaceutical compounds were purchased from Selleckchem (Supplementary Table 2). Stock solutions were prepared using dimethyl sulfoxide (DMSO; Merck), physiological saline (sodium chloride 0.9%) or Milli-Q water, and stored at −80 °C. […] Matched concentration solvent vehicle controls were used for each drug concentration. The drug screens were performed in triplicate and repeated three (monotherapy) or two (combination therapy) times (Fig. 7).
The optimal seeding density per 96-well was determined for each cell line as previously described. The cells were seeded at a density of 4.0 × 10^3 to 7.5 × 10^3 (cell type dependent) in 96-well clear, flat-bottom microplates (Corning Life Sciences, Sigma-Aldrich) in 100 µl complete culture medium (Supplementary Table 1) and cultured for 24 h. Cell viability was determined using the resazurin assay in untreated cells at the time of plating (t = 0) and treated cells after 24 h drug treatment (Fig. 7). Percentage cell viability was calculated as 100% × (absorbance of treated cells – absorbance of background controls) / (absorbance of matched solvent vehicle controls – absorbance of background controls). The area under the curve (AUC), half-maximal inhibitory concentration (IC50), drug potency (GR50), and drug efficacy (GRmax) were determined for each compound using the GRmetrics (version 1.20.0) package in R. The monotherapy data were evaluated with the IDACombo (version 1.0.2) package in R to predict potential drug combinations (Table 1). SynergyFinder (version 3.2.10) package in R was used to identify synergistic drug combinations.
Eighteen pharmaceutical compounds were purchased from Selleckchem. […] The solubility of the compound was enhanced by pre-heating the solvent (lukewarm), if necessary. […] The stock solutions were stored at -80°C. […] Matched concentration solvent vehicle controls were used for each drug concentration. The drug screens were performed in triplicate and repeated three times for the monotherapies and twice for the combination treatments. The drug(s) and corresponding controls were plated in 96-well PCR plates (VWR) and stored at -20°C (Fig. 6). The drug plates were thawed, centrifuged (3000 rpm for 30s), and acclimatized to RT before the drugs were added to the cells. New drug plates were prepared for each drug screen.
Cell viability was measured daily (day 0 [plating day] to day 4) using 0.2 mg/ml resazurin solution prepared from resazurin sodium salt (Fisher Scientific) dissolved in sterile 1xPBS (ThermoFisher Scientific). Before use, the resazurin solution was brought to RT before 10 µl (10% of cell medium volume) was added to each 96-well and incubated for 4h at 37°C. […] The slope of the curve was used to determine the optimal seeding density, i.e., the highest seeding density with linear growth between days 1 and 3.
The cells were seeded at a density of 4.0x10^3 to 7.5x10^3 (cell type-dependent) in 96-well clear, flat-bottom microplates (Corning Life Sciences, Sigma-Aldrich) in 100 µl culture medium supplemented with 10% FBS and cultured for 24h. Cell viability was determined using the resazurin assay after 24h drug treatment (Fig. 6). Percentage cell viability was calculated as 100% × (absorbance of treated cells – absorbance of background controls) / (absorbance of matched solvent vehicle controls – absorbance of background controls). Normalized growth rate inhibition (GR) was assessed using the absorbance of untreated cells after the time of plating (t = 0). […] For combination treatment, the monotherapy data were evaluated with the IDACombo (version 1.0.2)[20] package in R to predict potential drug combinations (Table 1). SynergyFinder (version 3.2.10)[21] package in R was used to identify synergistic drug combinations.

[2] = system: BT-549 cells; design: species or system human; AUC: scale not given here; conditions: BT-549; for AUC: area under the dose response curve, 24 h; for GRmax: drug efficacy at highest tested dose (<0 cytotoxic, 0 cytostatic, >0 partial growth inhibition); for IC50: growth rate inhibition concentration at GR(c) = 0.5, 24 h, read-out: GR50 (the source's name)
Procedure: (§1) Eighteen pharmaceutical compounds were purchased from Selleckchem. […] The stock solutions were stored at -80°C. […] New drug plates were prepared for each drug screen.
(§2) To determine the optimal seeding density and ensure that the cells were in the exponential phase during the duration of the experiment (approx. 52h), each cell line (BT-549, CAL-148, HCC1806, HCC38, HCC70, MCF-10A, MCF-7, MDA-MB-436, MDA-MB-453, and MDA-MB-468) was seeded at different concentrations (1000 to 16000 cells) per 96-well, as previously described. Cell viability was measured daily (day 0 [plating day] to day 4) using 0.2 mg/ml resazurin solution prepared from resazurin sodium salt (Fisher Scientific) dissolved in sterile 1xPBS (ThermoFisher Scientific). Before use, the resazurin solution was brought to RT before 10 µl (10% of cell medium volume) was added to each 96-well and incubated for 4h at 37°C. The absorbance was measured with a 560 nm excitation filter and a 615 nm emission filter in a Wallac 1420 VICTOR2™ microplate reader (Perkin Elmer). The slope of the curve was used to determine the optimal seeding density, i.e., the highest seeding density with linear growth between days 1 and 3.

[3] = system: HCC1806 cells; design: species or system human; AUC: scale not given here; conditions: HCC1806; for AUC: area under the dose response curve, 24 h; for GRmax: drug efficacy at highest tested dose (<0 cytotoxic, 0 cytostatic, >0 partial growth inhibition); for IC50: Homo sapiens
Procedure: as §1, §2

[4] = system: HCC38 cells; design: species or system human; AUC: scale not given here; conditions: HCC38; for AUC: area under the dose response curve, 24 h; for GRmax: drug efficacy at highest tested dose (<0 cytotoxic, 0 cytostatic, >0 partial growth inhibition)
Procedure: as §1, §2

[5] = system: HCC70 cells; design: species or system human; AUC: scale not given here; conditions: HCC70; for AUC: area under the dose response curve, 24 h; for GRmax: drug efficacy at highest tested dose (<0 cytotoxic, 0 cytostatic, >0 partial growth inhibition)
Procedure: as §1, §2

[6] = system: MCF-10A cells; design: species or system human; AUC: scale not given here; conditions: for AUC: area under the dose response curve, 24 h
Procedure: as §1, §2

[7] = system: MDA-MB-436 cells; design: species or system human; AUC: scale not given here; conditions: MDA-MB-436; for IC50: growth rate inhibition concentration at GR(c) = 0.5, 24 h, read-out: GR50 (the source's name); for AUC: area under the dose response curve, 24 h; for GRmax: drug efficacy at highest tested dose (<0 cytotoxic, 0 cytostatic, >0 partial growth inhibition)
Procedure: as §1, §2

[8] = system: MDA-MB-453 cells; design: species or system human; AUC: scale not given here; conditions: MDA-MB-453; for AUC: area under the dose response curve, 24 h
Procedure: as §1, §2

[9] = system: MDA-MB-468 cells; design: species or system human; AUC: scale not given here; conditions: MDA-MB-468; for AUC: area under the dose response curve, 24 h
Procedure: as §1, §2

[10] = Homo sapiens, growth rate inhibition concentration at GR(c) = 0.5, 24 h, read-out: GR50 (the source's name)
[11] = 24 h drug treatment, read-out: IC50
[12] = growth rate inhibition concentration at GR(c) = 0.5, 24 h, read-out: GR50 (the source's name)
[13] = Homo sapiens, 24 h drug treatment, read-out: IC50
[14] = drug efficacy at highest tested dose (<0 cytotoxic, 0 cytostatic, >0 partial growth inhibition)

| Compound | AUC [1] | GRmax [1] | AUC [2] | GRmax [2] | AUC [3] | GRmax [3] | AUC [4] | GRmax [4] | AUC [5] | GRmax [5] | AUC [6] | AUC [7] | GRmax [7] | AUC [8] | AUC [9] | also measured |
| --- | --- | --- | --- | --- | --- | --- | --- | --- | --- | --- | --- | --- | --- | --- | --- | --- |
| CC(C)C[C@H](NC(=O)[C@H](Cc1ccccc1)NC(=O)c1cnccn1)B(O)O [Bortezomib] | 0.77 | 0.17 | 0.66 | 0.39 | 0.70 | 0.33 | 0.40 | −0.99 | 0.68 | −0.55 | 0.59 | 0.75 | −0.76 | 0.75 | 0.57 | IC50 [1, 10]: 120 nM; IC50 ([2]; Homo sapiens): 100 nM; IC50 [3, 11]: 790 nM; IC50 [3, 12]: 380 nM; IC50 [4, 13]: 24 nM; IC50 [4, 10]: 10 nM; IC50 [5, 13]: 810 nM; IC50 [5, 10]: 100 nM; IC50 [6, 13]: 46 nM; IC50 [6, 10]: 12 nM; IC50 ([7]; Homo sapiens): 21 nM; IC50 [8, 10]: 63 nM; IC50 [9, 13]: 54 nM; IC50 [9, 10]: 17 nM |
| N.N.O=C([O-])C1(C(=O)[O-])CCC1.[Pt+2] [Carboplatin] | 0.92 | 0.03 | 0.85 | 0.39 | 0.90 | 0.53 | 0.88 | 0.03 | 0.83 | −0.42 | 0.90 | 0.91 | 0.41 | 0.98 | 0.81 | IC50 [1, 11]: 930 nM; IC50 [1, 12]: 490 nM; IC50 [2]: 670 nM; IC50 [4, 11]: 890 nM; IC50 [4, 12]: 430 nM; IC50 [5, 11]: 450 nM; IC50 [5, 12]: 270 nM; IC50 [6, 11]: 730 nM; GRmax [6, 14]: 0.19; IC50 [6, 12]: 760 nM; IC50 [7]: 870 nM; GRmax [8, 14]: 0.79; IC50 [9, 11]: 470 nM; GRmax [9, 14]: 0.02; IC50 [9, 12]: 240 nM |
